Patent EP4755890A1, “OXO-TRICYCLIC DERIVATIVE AND PHARMACEUTICAL USE THEREOF” (Haisco Pharmaceutical Group Co., Ltd., priority 2023, dated 2025)

Tests used:
[1] = target: T1, WRN protein (AA N517-P1238, ICE, Cat. S2212T-H56HZ) (Homo sapiens, UniProt Q14191); experiment: Assay for WRN helicase activity (FORKF dsDNA unwinding, fluorescence); type: biochemical; settings: inhibition of WRN helicase activity; 10 nM WRN, 10 nM FORKF, 2 mM ATP
T1 construct: WRN protein (AA N517-P1238, ICE, Cat. S2212T-H56HZ); purchased ICE S2212T-H56HZ
Experimental: The assay buffer working solution prepared with RNAase-free water was as follows: 25 mM Tris (pH 7.5), 2 mM MgCl2, 50 mM NaCl, 0.02% BSA, 0.01% Tween, and 1 mM DTT. WRN protein (AA N517-P1238, ICE, Cat. S2212T-H56HZ) was obtained through protein expression and purification in vitro. Two single-stranded DNAs were synthesized: […]-BHQ2 (quencher), and (fluorophore) TAMRA-[…]. dsDNA (FORKF) was obtained via annealing of the two single-stranded DNAs. When the WRN protein bound to FORKF, the dsDNA was unwound, exposing the fluorophore, thereby generating fluorescence. 2 µL of compounds at different concentrations and 4 µL of WRN protein were added to a 384-well black plate (Greiner, Cat#784075). The plate was pre-incubated at room temperature for 20 minutes. 2 µL each of ATP and the FORKF substrate were added. The working concentrations of the WRN protein, FORKF, and ATP were 10 nM, 10 nM, and 2 mM, respectively. The plate was incubated at room temperature for 20 minutes. After the incubation was completed, the fluorescence value was read at Ex 540 nm/Em 590 nm using a BMG microplate reader (PHERAstar FSX).
(§1) The inhibition rate was calculated according to Formula 2, where RLUsample is the readout of the compound well, RLUmax is the readout of the DMSO control well, and RLUmin is the readout of the control well without the WRN protein. Curve fitting was performed via a four-parameter logistic model using GraphPad Prism software, and the IC50 value (the concentration of the compound when the inhibition rate was 50%) was calculated. Inhibition% = (1−(RLUsample−RLUmin)/(RLUmax−RLUmin)) × 100% [formula] Table 2. Results of inhibitory activity of test compounds against WRN helicase activity

SW48 cells = experiment: SW48 cell proliferation inhibition assay (CellTiter-Glo); type: cell-based; settings: Homo sapiens, 96 h, 4 days, read-out: Inhibitory activity against SW48 cell proliferation IC50
Experimental: (§2) The culture conditions for SW48 cells were as follows: Leibovitz L15 + 10% FBS + 1% penicillin-streptomycin, and the cells were cultured in an incubator without CO2 at 37°C. On the first day, the SW48 cells in the exponential growth phase were collected and plated in 96-well cell culture plates at a density of 1000 cells/well (180 µL/well). The plates were cultured overnight in an incubator without CO2 at 37°C. T0 wells were plated simultaneously during the plating process. The next day, 20 µL of compounds at different concentrations were added to each well (nine compound concentration gradients, one DMSO well, and one blank well; each compound concentration was plated in triplicate), and the final concentration of DMSO in each well was 0.1%. The plates were cultured in an incubator without CO2 at 37°C for 4 days. On the same day of compound addition, the T0 plate was detected using the CellTiter-Glo Kit, and the detected value was recorded as RLU0. After the culture was completed, 100 µL of detection solution (Cell Viability Assay, Promega) was added to each well. The plates were incubated at room temperature for 10 minutes with slow shaking. The chemiluminescence reading was read using a BMG microplate reader (PHERAstar FSX). The results were processed according to Formula (5) to calculate the proliferation inhibition rate of compounds at each concentration. Curve fitting was performed via a four-parameter logistic model using GraphPad Prism software, and the GI50 value (the concentration of the compound when the proliferation inhibition rate was 50%) was calculated. In the formula, RLUcompound is the readout of the drug-treated group, RLUcontrol is the average value of the compound vehicle control group, and RLUBlank is the average value of the blank control group. [formula] Table 3. Results of inhibitory activity of test compounds against cell proliferation

[2] = target: T2, WRN protein (AA N517-P1238, ICE) (Homo sapiens, UniProt Q14191); experiment: Assay for ATPase activity of WRN helicase (ADP-Glo); type: biochemical; settings: inhibition of ATPase activity of WRN helicase; 0.3 nM WRN, 0.2 nM DNA substrate, 10 µM ATP
T2 construct: WRN protein (AA N517-P1238, ICE); purchased ICE
Experimental: The assay buffer working solution was as follows: 30 mM Tris pH 7.5 + 0.02% BSA + 2 mM MgCl2 + 50 mM NaCl + 0.1% Pluronic® F127 + 1 mM DTT. WRN protein (AA N517-P1238, ICE) was obtained through protein expression and purification in vitro. A single-stranded DNA substrate ([…]) was synthesized in vitro. 1 µL each of compounds at different concentrations, the WRN protein, and the DNA substrate, together with 2 µL of ATP, were added to a 384-well white plate. The working concentrations of the WRN protein, the DNA substrate, and the ATP were 0.3 nM, 0.2 nM, and 10 µM, respectively. The plate was incubated at room temperature for 20 minutes. After the incubation was completed, the detection was performed in accordance with the instructions of the ADP-Glo Assay Kit (Promega), and the chemiluminescence value was read.
as §1, with “1,” for “2,”, “model (log(inhibitor) vs. response -- Variable slope)” for “model”, “value” for “value (the concentration of the compound when the inhibition rate was 50%)”, “1.” for “2.”, “against ATPase activity of” for “against”, “helicase” for “helicase activity”

[3] = Mouse pharmacokinetic assay; type: in vivo, Balb/c mice; settings: po, mouse plasma, i.g. (10 mg/kg)
Experimental: 4.1. Experimental animals: Male Balb/c mice, about 22 g, 6-8 weeks old, 6 mice/compound. The animals were purchased from CHENGDU DOSSY EXPERIMENTAL ANIMALS CO., LTD.
4.2. Experimental design: On the day of the experiment, the Balb/c mice were randomly grouped according to their body weights. The animals were fasted with water available for 12-14 h one day before the administration, and were fed 4 h after the administration. Table 4. Administration information
Vehicle for intravenous administration: 5% DMA + 5% Solutol + 90% Saline; and vehicle for intragastric administration: 5% DMSO + 95% (20% SBE-β-CD in Saline)
Before and after the administration, 0.03 ml of blood was taken from the orbit under isoflurane anesthesia and placed in an EDTAK2 centrifuge tube. The tube was centrifuged at 5000 rpm at 4°C for 10 min, and plasma was collected. The blood collection time points for the intravenous administration group and intragastric administration group were as follows: 0, 2 min, 5 min, 15 min, 30 min, 1 h, 2 h, 4 h, and 7 h. Before analysis and detection, all samples were stored at - 80°C. Table 5. Pharmacokinetic parameters of test compounds in mouse plasma

[4] = Beagle dog pharmacokinetic assay; type: in vivo, Beagle dogs; settings: male, po; Beagle dog plasma, i.g. (3 mg/kg)
Experimental: 7.1. Experimental animals: Male Beagle dogs, about 8-13 kg, 6 Beagle dogs/compound.
7.2. Experimental method: On the day of the experiment, the Beagle dogs were randomly grouped according to their body weights. The animals were fasted with water available for 14-18 h one day before the administration, and were fed 4 h after the administration. The animals were administered according to Table 6. Table 6. Administration information
Note: Vehicle for intravenous administration: 5% DMA + 5% Solutol + 90% Saline; and vehicle for intragastric administration: 5% DMSO + 95% (20% SBE-β-CD in Saline) (DMA: dimethylacetamide; Solutol: polyethylene glycol-15-hydroxystearate; Saline: normal saline; and MC: methylcellulose)
Before and after the administration, 1 ml of blood was taken from the jugular veins or limb veins and placed in an EDTAK2 centrifuge tube. The tube was centrifuged at 5000 rpm at 4°C for 10 min, and plasma was collected. The blood collection time points for the intravenous administration group and intragastric administration group were as follows: 0, 5 min, 15 min, 30 min, 1 h, 2 h, 4 h, 6 h, 8 h, 10 h, 12 h, 24 h, and 48 h. Before analysis and detection, all samples were stored at -80°C. The samples were analyzed quantitatively by LC-MS/MS. Table 7. Pharmacokinetic parameters of test compounds in Beagle dog plasma

HT-29 cells = experiment: HT-29 cell proliferation inhibition assay (CellTiter-Glo); type: cell-based; settings: Homo sapiens, 96 h, 4 days, read-out: Inhibitory activity against HT-29 cell proliferation IC50
Experimental: as §2, with “HT-29” for “SW48”, “DMEM” for “Leibovitz L15”, “with 5%” for “without”, “(4)” for “(5)”, “[formula]” for “[formula] Table 3. Results of inhibitory activity of test compounds against cell proliferation”

T1 sequence (Q14191 517-1238, stated change not applied): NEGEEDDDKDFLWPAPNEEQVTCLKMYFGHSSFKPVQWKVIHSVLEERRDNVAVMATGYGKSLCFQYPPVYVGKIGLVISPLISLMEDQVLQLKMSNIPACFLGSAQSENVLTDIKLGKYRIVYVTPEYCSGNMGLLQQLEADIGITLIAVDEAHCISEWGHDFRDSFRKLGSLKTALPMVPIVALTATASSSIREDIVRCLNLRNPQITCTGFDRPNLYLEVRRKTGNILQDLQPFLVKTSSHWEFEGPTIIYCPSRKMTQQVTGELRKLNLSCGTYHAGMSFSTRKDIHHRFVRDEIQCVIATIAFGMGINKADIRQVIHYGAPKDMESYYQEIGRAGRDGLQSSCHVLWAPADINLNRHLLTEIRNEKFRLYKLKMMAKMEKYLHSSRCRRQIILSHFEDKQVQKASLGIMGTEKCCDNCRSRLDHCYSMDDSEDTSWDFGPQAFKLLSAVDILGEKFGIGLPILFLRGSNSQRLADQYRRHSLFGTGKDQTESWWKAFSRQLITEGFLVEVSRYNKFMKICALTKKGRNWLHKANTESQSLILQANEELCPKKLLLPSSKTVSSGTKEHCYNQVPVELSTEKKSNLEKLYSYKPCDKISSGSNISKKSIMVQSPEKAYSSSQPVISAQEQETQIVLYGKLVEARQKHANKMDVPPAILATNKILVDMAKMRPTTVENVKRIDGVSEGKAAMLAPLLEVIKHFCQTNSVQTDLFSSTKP
T2 sequence (Q14191 517-1238): as the sequence (Q14191 517-1238, stated change not applied) above

Row | SMILES | IC50 [1] [nM] | IC50 (SW48 cells) [nM] | also measured
1 | O=C(Nc1ccc(C(F)(F)F)cc1Cl)C1CCCc2c(N3CCN(C(=O)c4ncccc4O)CC3)c(=O)n3nc(C4=CCOCC4)nc3n21 (single isomer, unassigned) [Compound 2-B] | < 20 | < 100 | IC50 [2]: < 20 nM
2 | Cc1ncnc(C(=O)N2CC3(CCN(c4c5n(c6nc(C7=CCOCC7)nn6c4=O)C(C(=O)Nc4ccc(C(F)(F)F)cc4Cl)CCC5)CC3)C2)c1O (single isomer, unassigned) [Compound 14-B] |  |  | AUC(0-t) ([3]; in vivo): 24200 ng·h/mL; half-life ([3]; in vivo): 5.41 h
3 | Cc1ncnc(C(=O)N2CCN(c3c4n(c5nc(C6=CCOCC6)nn5c3=O)C(C(=O)Nc3ccc(C(F)(F)F)cc3Cl)CCC4)CC2)c1O (racemic) [Compound 1] | 20 to 100 | < 100 | 
4 | CCc1c(N2CCN(C(=O)c3ncnc(C)c3O)CC2)c(=O)n2nc(C3=CCOCC3)nc2n1CC(=O)Nc1ccc(C(F)(F)F)cc1Cl [HRO761, reference compound] |  |  | AUC(0-t) [4]: 10800 ng·h/mL; AUC(0-t) ([3]; male, Balb/c): 9210 ng·h/mL; half-life ([3]; male, Balb/c): 2.32 h; bioavailability ([3]; male, Balb/c, read-out: F (%)): 74.1%
5 | [2H]C1([2H])N(C(=O)c2ncnc(C)c2O)C([2H])([2H])C([2H])([2H])N(c2c3n(c4nc(C5=CCOCC5)nn4c2=O)C(C(=O)Nc2ccc(C(F)(F)F)cc2Cl)CCC3)C1([2H])[2H] (single isomer, unassigned) [Compound 7-B] | < 20 | < 100 | 
6 | Cc1ncnc(C(=O)N2CCN(c3c4n(c5nc(C6=CCOCC6)nn5c3=O)C(C(=O)Nc3ccc(C(F)(F)F)cc3Cl)CCC4)[C@@H](C)C2)c1O (single isomer, unassigned) [Compound 26-A] | < 20 | < 100 | IC50 (HT-29 cells): ≥ 10000 nM

Second part, led by results:

Row | IC50 [1] [nM] | SMILES | IC50 (SW48 cells) [nM] | also measured
7 | < 20 | Cc1ncnc(C(=O)N2CCN(c3c4n(c5nc(C6=CCOCC6)nn5c3=O)C(C(=O)Nc3ccc(C(F)(F)F)cc3F)CCC4)CC2)c1O (single isomer, unassigned) [Compound 15-B] |  | 
8 | < 20 | Cc1ncnc(C(=O)N2CCN(c3c4n(c5nc(C6=CCOCC6)nn5c3=O)C(C(=O)Nc3ccc(C(F)(F)F)c5c3CCC5)CCC4)CC2)c1O (racemic) [Compound 28] |  | 
9 | < 20 | Cc1ncnc(C(=O)N2CCN(c3c4n(c5nc(C6=CCOCC6)nn5c3=O)C(C(=O)Nc3ccc(C(F)(F)F)cc3Cl)CC4)CC2)c1O (single isomer, unassigned) [Compound 6-B] |  | 
10 | < 20 | Cc1cc(C(F)(F)F)ccc1NC(=O)C1CCCc2c(N3CCN(C(=O)c4ncnc(C)c4O)CC3)c(=O)n3nc(C4=CCOCC4)nc3n21 (single isomer, unassigned) [Compound 5-B] |  | 
11 | < 20 | Cc1ncnc(C(=O)N2CCN(c3c4n(c5nc(C6=CCOCC6)nn5c3=O)C(C(=O)Nc3ccc(C(F)(F)F)nc3Cl)CCC4)CC2)c1O (single isomer, unassigned) [Compound 3-B] |  | 
